Series [1] has as its target T1, recombinant β-galactosidase from A. vulgaris (β-gal) (Arion vulgaris, UniProt A0A0B7AQJ9).
T1 construct: gene ORF136304
T1 sequence (A0A0B7AQJ9 1-661): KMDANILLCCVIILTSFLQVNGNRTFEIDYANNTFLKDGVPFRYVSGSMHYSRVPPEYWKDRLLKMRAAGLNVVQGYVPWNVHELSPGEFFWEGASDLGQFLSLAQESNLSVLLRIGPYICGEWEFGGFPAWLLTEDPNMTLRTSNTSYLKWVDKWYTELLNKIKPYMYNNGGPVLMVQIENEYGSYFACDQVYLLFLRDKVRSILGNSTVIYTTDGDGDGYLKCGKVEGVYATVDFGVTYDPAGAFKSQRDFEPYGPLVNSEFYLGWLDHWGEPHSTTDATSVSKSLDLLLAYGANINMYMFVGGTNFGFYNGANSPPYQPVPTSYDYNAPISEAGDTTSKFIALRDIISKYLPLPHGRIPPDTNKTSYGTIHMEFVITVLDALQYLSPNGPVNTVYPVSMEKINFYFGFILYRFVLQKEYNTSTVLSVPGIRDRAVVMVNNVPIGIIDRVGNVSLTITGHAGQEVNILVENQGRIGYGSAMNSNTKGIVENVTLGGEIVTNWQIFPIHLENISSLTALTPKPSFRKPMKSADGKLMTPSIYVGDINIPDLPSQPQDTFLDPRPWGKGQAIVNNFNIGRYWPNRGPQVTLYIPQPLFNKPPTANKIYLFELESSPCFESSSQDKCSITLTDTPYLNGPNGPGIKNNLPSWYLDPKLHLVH
Nature of the series: inhibition of pNP-β-Gal hydrolysis, colorimetric […] nm. Format: biochemical. The following applies: pNP-β-Gal substrate, pH 4.5, 37 °C, 2 h; 12 mM galactose; product inhibition.

The subject of series [2] is T2, native β-galactosidase from A. lusitanicus.
T2 construct: gene β-Gal
Nature of the series: colorimetric p-nitrophenol release, […] nm. Format: biochemical, Arion vulgaris. The following applies: pH 4.5 (Na citrate), 37 °C, 2 h; 0.2-12.5 mM substrate.

Substrate in series [3]: O=[N+]([O-])c1ccc(O[C@@H]2O[C@H](CO)[C@H](O)[C@H](O)[C@H]2O)cc1
Kind of series: purified protein. The following applies: pH 4.5 (Na citrate), 37 °C, 2 h, 0.2-12.5 mM substrate.

`OC[C@H]1OC(O)[C@H](O)[C@@H](O)[C@H]1O` (stereo partly drawn) [galactose]: the “% reduction of activity at 12 mM” value in series [1] is recorded as ~ 40%.
Broadly, the Km is the substrate concentration at which the rate is half of its maximum. For the molecule `O=[N+]([O-])c1ccc(O[C@@H]2O[C@H](CO)[C@H](O)[C@H](O)[C@H]2O)cc1` [pNP-β-Gal], in series [2], the Km came to 8.3 mM.

B1: recombinant β-galactosidase from A. vulgaris (β-gal) (Arion vulgaris) (protein)
chain: T1 sequence (A0A0B7AQJ9 1-661)
For B1, in series [3], the Km is given as 3.2 mM.

For the origin of these results see PMC9687990, “Identification, Characterization, and Expression of a β-Galactosidase from Arion Species (Mollusca)” (Biomolecules, 2022).
